Source: patent publication US11780841B2, “3,6-methano-1H-pyrrolo[3,2-b]pyridine and 3,6-methano-1H-pyrrolo[3,2-c]pyridine compounds and medicaments using same” (priority 2018, dated 2023)
Where two headings read alike, the source gives them in different places.

Tested on: recombinant rabies virus 1088 strain expressing Gaussia Luciferase (GLuc) (1088/GLuc)
Format: cell-based

Structure (SMILES)	IC50 (read-out: Anti-rabies activity) [µM]	IC50 (read-out: IC50) [µM]
NC(=O)CN1C[C@@H]2C[C@@H]3CN[C@]2(C(=O)NCc2cccc4ccccc24)[C@@H]1[C@@H]3Cc1ccc(O)cc1 (relative stereo) [IB-83]	10 to 30	–
O=C(NCc1ccc(O)cc1)[C@@]12C[C@@H]3CN(Cc4ccc(F)cc4)[C@@H]([C@@H]3CN1)[C@H]2Cc1ccccc1 [IF-481]	10 to 30	–
O=C(O)CCNC(=O)[C@]12NC[C@H]3C[C@H]1CN(Cc1ccc(O)cc1)[C@H]2[C@@H]3Cc1cccc2ccccc12 [IB-410]	10 to 30	–
CC(C)CC[C@@H]1[C@H]2CN[C@@]3(C(=O)NCc4ccccc4)[C@@H](C2)CN(CCC(=O)O)[C@@H]13 [IB-694]	10 to 30	–
CC(C)C[C@@H]1[C@@H]2[C@@H]3CN[C@@]1(C(=O)NCc1ccccc1)C[C@@H]3CN2Cc1ccc(C(C)(C)C)cc1 [IF-849]	5 to 10	–
NC(=O)C[C@@H]1[C@@H]2[C@@H]3CN[C@@]1(C(=O)NCCc1ccccc1)C[C@@H]3CN2Cc1ccc(F)cc1 [IF-269]	10 to 30	–
CC(C)CNC(=O)[C@]12NC[C@H]3C[C@H]1CN(Cc1cccc4ccccc14)[C@H]2[C@@H]3CC(C)C [IB-762]	< 5	–
NC(=O)CN1C[C@H]2C[C@]3(C(=O)NCc4cccc5ccccc45)NC[C@H]2[C@H]1[C@H]3CCc1ccccc1 (relative stereo) [IF-85]	10 to 30	–
O=C(O)CCNC(=O)[C@]12NC[C@H]3C[C@H]1CN(CCO)[C@H]2[C@@H]3Cc1cccc2ccccc12 [IB-610]	10 to 30	–
CC(C)CCN1C[C@@H]2C[C@@H]3CN[C@]2(C(=O)NCCC(N)=O)[C@@H]1[C@@H]3Cc1cccc2ccccc12 [IB-703]	< 5	–
Cc1ccc(CN2C[C@@H]3C[C@@H]4CN(C(=O)CC(C)C)[C@]3(C(=O)NCc3ccccc3)[C@@H]2[C@@H]4CC(C)C)cc1 (relative stereo) [IB-883]	< 5	–
CC(C)CNC(=O)[C@]12NC[C@H]3C[C@H]1CN(CCC(=O)O)[C@H]2[C@@H]3CO [IB-431]	10 to 30	–
CC(C)C[C@@H]1[C@@H]2[C@@H]3CN[C@@]1(C(=O)NCc1ccc(O)cc1)C[C@@H]3CN2Cc1cccc2ccccc12 [IF-473]	< 5	–
CC(C)C[C@@H]1[C@@H]2[C@@H]3CN[C@@]1(C(=O)NCc1ccc(O)cc1)C[C@@H]3CN2Cc1ccc(F)cc1 [IF-482]	10 to 30	–
CC(C)CNC(=O)[C@@]12C[C@@H]3CN(CC4CCCCC4)[C@@H]([C@@H]3CN1)[C@H]2Cc1cccc2ccccc12 [IF-646]	< 5	–
O=C(O)CCN1C[C@@H]2C[C@@H]3CN[C@]2(C(=O)NCc2ccc(F)cc2)[C@@H]1[C@@H]3Cc1ccccc1 [IB-394]	10 to 30	–
CCCCCCNC(=O)[C@]12NC[C@H]3C[C@H]1CN(CC(N)=O)[C@H]2[C@@H]3Cc1ccccc1 [IB-105]	10 to 30	–
CC(C)CC1C2C=NC3(C(=O)NCc4ccccc4)C(C2)CN(Cc2cccc(Cl)c2)C13 (stereo not drawn) [IIB-84]	< 5	–
O=C(NCc1ccc(O)cc1)C12NCC3CC1CN(Cc1ccc(F)cc1)C2C3Cc1ccccc1 (stereo not drawn) [IB-583]	10 to 30	–
CC(C)CCN1CC2CC3CNC2(C(=O)NCc2ccc(O)cc2)C1C3CCc1ccccc1 (stereo not drawn) [IB-576]	10 to 30	–
Cc1ccc(CN2C[C@@H]3C[C@@H]4CN(C(=O)OCC(C)C)[C@]3(C(=O)NCc3ccccc3)[C@@H]2[C@@H]4CC(C)C)cc1 (relative stereo) [IB-886]	5 to 10	–
CC(C)NC(=O)[C@@]12C[C@@H]3CN(Cc4cccc5ccccc45)[C@@H]([C@@H]3CN1)[C@H]2CCCNC(=N)N [IF-244]	< 5	–

Structure (SMILES)	IC50 (read-out: Anti-rabies activity) [µM]	IC50 (read-out: IC50) [µM]
NC(=O)CN1C[C@@H]2C[C@@H]3CN[C@]2(C(=O)NCc2ccc(F)cc2)[C@@H]1[C@@H]3Cc1cccc2ccccc12 [IB-96]	10 to 30	–
O=C(NCc1ccc(O)cc1)[C@@]12C[C@@H]3CN(Cc4ccccc4)[C@@H]([C@@H]3CN1)[C@H]2CCc1ccccc1 (relative stereo) [IF-565]	< 5	–
CC(C)CC[C@@H]1[C@@H]2[C@@H]3CN[C@@]1(C(=O)NCc1ccccc1)C[C@@H]3CN2CC(C)C [IF-675]	< 5	–
CC(C)CCNC(=O)[C@]12NC[C@H]3C[C@H]1CN(CCO)[C@H]2[C@@H]3Cc1ccccc1 [IB-714]	< 5	–
CC(C)C[C@@H]1[C@H]2CN[C@@]3(C(=O)NCCCNC(=N)N)[C@@H](C2)CN(Cc2cccc4ccccc24)[C@@H]13 [IB-350]	10 to 30	–
Cc1ccc(CNC(=O)[C@@]23C[C@@H]4CN(CC(C)C)[C@@H]([C@@H]4C=N2)[C@H]3Cc2ccccc2)cc1 (relative stereo) [IIF-16]	10 to 30	28.7
CC(C)C[C@@H]1[C@@H]2[C@@H]3CN[C@@]1(C(=O)NCc1cccc4ccccc14)C[C@@H]3CN2CC(C)C [IF-726]	10 to 30	–
NC(=O)CCNC(=O)C12NCC3CC1CN(CC1CCCCC1)C2C3Cc1cccc2ccccc12 (stereo not drawn) [IB-522]	10 to 30	–
N=C(N)NCCCNC(=O)[C@]12NC[C@H]3C[C@H]1CN(Cc1ccccc1)[C@H]2[C@@H]3Cc1ccccc1 [IB-276]	10 to 30	–
CC(C)CNC(=O)[C@@]12C[C@@H]3CN(Cc4cccc5ccccc45)[C@@H]([C@@H]3CN1)[C@H]2CC(C)C [IF-739]	< 5	–
CC(C)C[C@@H]1[C@@H]2[C@@H]3CN[C@@]1(C(=O)NCc1ccc(O)cc1)C[C@@H]3CN2CCc1ccccc1 [IF-470]	10 to 30	–
O=C(NCCO)[C@]12NC[C@H]3C[C@H]1CN(Cc1ccc(F)cc1)[C@H]2[C@@H]3Cc1ccccc1 [IB-649]	10 to 30	–
COC(=O)N1C[C@H]2C[C@H]3CN(Cc4ccc(C)cc4)[C@@H]([C@@H]2CC(C)C)[C@]31C(=O)NCc1ccccc1 (relative stereo) [IB-885]	5 to 10	–
O=C(NCCO)[C@]12NC[C@H]3C[C@H]1CN(CC1CCCCC1)[C@H]2[C@@H]3CCc1ccccc1 [IB-663]	< 5	–
CC(C)CNC(=O)[C@]12NC[C@H]3C[C@H]1CN(CC(C)C)[C@H]2[C@@H]3CCc1ccccc1 [IB-633]	< 5	–
O=C(NCc1cccc2ccccc12)[C@@]12C[C@@H]3CN(Cc4ccccc4)[C@@H]([C@@H]3CN1)[C@H]2Cc1ccccc1 [IF-805]	10 to 30	–
CC(C)C[C@@H]1[C@@H]2[C@@H]3CN[C@@]1(C(=O)NCCc1ccccc1)C[C@@H]3CN2CC(C)C [IF-725]	10 to 30	–
CC(C)CNC(=O)[C@@]12C[C@@H]3CN(Cc4ccc(F)cc4)[C@@H]([C@@H]3CN1)[C@H]2CCc1ccccc1 [IF-652]	< 5	–
CC(C)C[C@@H]1[C@H]2CN[C@@]3(C(=O)NCc4ccc(O)cc4)[C@@H](C2)CN(CCc2ccccc2)[C@@H]13 [IB-449]	10 to 30	–
CC(C)CCNC(=O)[C@@]12C[C@@H]3CN(Cc4ccccc4)[C@@H]([C@@H]3CN1)[C@H]2Cc1ccccc1 [IF-665]	< 5	–
CC(C)NC(=O)[C@@]12C[C@@H]3CN(Cc4ccc(F)cc4)[C@@H]([C@@H]3CN1)[C@H]2CCCNC(=N)N [IF-274]	10 to 30	–
NC(=O)CCNC(=O)[C@@]12C[C@@H]3CN(CC4CCCCC4)[C@@H]([C@@H]3CN1)[C@H]2Cc1cccc2ccccc12 [IF-536]	< 5	–

Structure (SMILES)	IC50 (read-out: Anti-rabies activity) [µM]	IC50 (read-out: IC50) [µM]
Cc1cccc(C[C@@H]2[C@@H]3[C@@H]4CN[C@@]2(C(=O)NCc2ccccc2)C[C@@H]4CN3CC(C)C)c1 (relative stereo) [IF-13]	10 to 30	13.1
Cc1ccc(CN2C[C@H]3C[C@@]4(C(=O)NCc5ccccc5)[C@H](CC(C)C)[C@@H]2[C@@H]3CN4C(=O)OCC(C)C)cc1 [IF-861]	5 to 10	–
NC(=O)CN1C[C@@H]2C[C@@H]3CN[C@]2(C(=O)NCCc2ccccc2)[C@@H]1[C@@H]3Cc1cccc2ccccc12 [IB-97]	< 5	–
CC(C)CCNC(=O)[C@]12NC[C@H]3C[C@H]1CN(CC(N)=O)[C@H]2[C@@H]3CCc1ccccc1 [IB-102]	< 5	–
CC(C)NC(=O)[C@]12NC[C@H]3C[C@H]1CN(Cc1ccc(O)cc1)[C@H]2[C@@H]3Cc1cccc2ccccc12 [IB-502]	< 5	–
CC(C)CNC(=O)[C@@]12C[C@@H]3CN(CCC(=O)O)[C@@H]([C@@H]3CN1)[C@H]2Cc1ccc(O)cc1 [IF-455]	10 to 30	–
CC(C)C[C@@H]1[C@@H]2CN[C@@]3(C(=O)NCCc4ccccc4)[C@@H](C2)CN(Cc2ccccc2)[C@@H]13 (relative stereo) [IB-12]	10 to 30	15.5
O=C(NCCc1ccccc1)[C@@]12C[C@@H]3CN(Cc4ccc(O)cc4)[C@@H]([C@@H]3CN1)[C@H]2Cc1cccc2ccccc12 [IF-580]	10 to 30	–
CCCCCCNC(=O)[C@@]12C[C@@H]3CN(CCC(C)C)[C@@H]([C@@H]3CN1)[C@H]2Cc1ccc(O)cc1 (relative stereo) [IF-583]	< 5	–
O=C(NCc1ccccc1)[C@@]12C[C@@H]3CN(Cc4cccc5ccccc45)[C@@H]([C@@H]3CN1)[C@H]2Cc1ccc(O)cc1 (relative stereo) [IF-505]	< 5	–
O=C(NCc1ccc(O)cc1)[C@@]12C[C@@H]3CN(Cc4cccc5ccccc45)[C@@H]([C@@H]3CN1)[C@H]2Cc1ccccc1 [IF-472]	< 5	–
CC(C)CC1C2C=NC3(C(=O)NCc4ccc5ccccc5c4)C(C2)CN(Cc2ccccc2)C13 (stereo not drawn) [IIB-102]	< 5	–
CC(C)CCNC(=O)[C@]12NC[C@H]3C[C@H]1CN(CC(C)C)[C@H]2[C@@H]3Cc1ccc(O)cc1 [IB-684]	10 to 30	–
CCCCCCNC(=O)[C@@]12C[C@@H]3CN(Cc4ccc(F)cc4)[C@@H]([C@@H]3CN1)[C@H]2CCCNC(=N)N [IF-298]	10 to 30	–
CC(C)CC[C@@H]1[C@@H]2[C@@H]3CN[C@@]1(C(=O)NCCC(N)=O)C[C@@H]3CN2Cc1cccc2ccccc12 [IF-384]	10 to 30	–
CC(C)CCNC(=O)[C@@]12C[C@@H]3CN(CC(C)C)[C@@H]([C@@H]3CN1)[C@H]2Cc1ccccc1 [IF-845]	10 to 30	–
O=C(NCc1cccc2ccccc12)[C@@]12C[C@@H]3CN(CCO)[C@@H]([C@@H]3CN1)[C@H]2Cc1ccccc1 [IF-758]	< 5	–
CCCCCCNC(=O)[C@@]12C[C@@H]3CN(Cc4cccc5ccccc45)[C@@H]([C@@H]3CN1)[C@H]2CCCNC(=N)N [IF-243]	< 5	–
O=C(NCc1ccc(F)cc1)[C@]12NC[C@H]3C[C@H]1CN(CCO)[C@H]2[C@@H]3CCc1ccccc1 [IB-492]	< 5	–
Cc1ccc(CN2CC3CC4(C(=O)NCc5ccccc5)N=CC3C2C4CC(C)C)cc1 (stereo not drawn) [IIF-86]	< 5	–
CC(C)CCN1C[C@H]2C[C@]3(C(=O)NCc4ccccc4)NC[C@H]2[C@H]1[C@H]3Cc1ccccc1 (relative stereo) [IF-9]	10 to 30	15.6
